{
  "source": "patent US20060167229A1",
  "about": "“Biologically active peptide conjugates” (priority 2002, published 2006)",
  "key": {"B16 melanoma": {"tested_on": "B16 melanoma", "test": "Melanoma lung metastasis foci after inoculation of B16 melanoma cells", "assay_type": "in vivo, C57BL/6 mice", "procedure": "Intraperitoneal injection, once per day. […] Treatment of all groups with testing substance lasted for 30 days or until the animal died unless otherwise specified. […] The cell concentration was adjusted to 1×10^5 per ml with Hank's solution and 0.1 ml of the cell suspension was injected via the tail vein into the testing mice to generate the B16 melanoma bearing animal model. Treatment with test substance started as described in section Method 1. […] Postmortem Examination of the Animals was Performed. The Pathological Changes were Recorded, and the Numbers of Melanoma Lung Metastasis Foci Were Counted. Results"}, "[1]": {"tested_on": "ascitic fluid type liver cancer H22", "test": "Survival of mice with transplanted ascitic fluid type liver cancer H22", "assay_type": "in vivo, BALB/c mice", "conditions": "for Survival days: saline 26.2 ± 6.8", "procedure": "(§1) Intraperitoneal injection, once per day. […] Treatment of all groups with testing substance lasted for 30 days or until the animal died unless otherwise specified.\nStock H22 cells were incubated in DMEM/F12 medium supplemented with 10% fetal bovine serum, 37° C./5% CO2 for 72 hrs, then washed 3-4 times with Hank's solution at room temperature. Adjust cell concentration to 1-2×10^9 per litre with Hank's solution. 0.2 ml of the cell suspension was implanted to the abdominal cavity of several BALB/c mice for 6-8 days. The mice were killed by cervical vertebra dislocation. Ascitic fluid of the mice was collected aseptically and the cell concentration adjusted to 1×10^6 per ml with Hank's solution. 0.2 ml of the cell suspension was implanted into the abdominal cavity of healthy mice to generate the H22 carrying mouse model for ascitic fluid type liver cancer. Administration of test substance started as described in section Method 1. Survival data of the mice was recorded. If the animal survived longer than the experiment, the survival days was recorded as the duration of the experiment. Mean survival day was obtained by the Kaplan-meier method in the Survival option of the SPSS software. The survival index was calculated according to the following formula: Survival index=(mean survival days in treatment group−mean survival days of control group)÷mean survival days of control group×100% 4. The Effect of Peptides on the Cellular Immunity of BALB/c Mice with Transplanted Ascitic Fluid Type Liver Cancer H22 4.1 Preparation of Spleen Cell Suspension^[1,4]"}, "mononuclear phagocyte": {"tested_on": "mononuclear phagocyte", "test": "Phagocytotic function of mononuclear phagocyte in mice with transplanted S180 sarcoma", "assay_type": "in vivo, BALB/c mice", "conditions": "saline 5.38 ± 0.85", "procedure": "as §1\n(§2) Stock S180 sarcoma cells were incubated in DMEM/F12 medium supplemented with 10% fetal bovine serum, 37° C., 5% CO2 for 72 hrs, then washed 3-4 times with Hank's solution at room temperature. Adjust the cell concentration to 1-2×10^9 per litre with Hank's solution. […] The mice were killed by cervical vertebra dislocation. Vigorously growing and non-disrupted tumor masses were harvested and washed clean with sterile saline. The tissue was dispersed in saline to a homogenous cell suspension, in a ratio of 1 g tissue to 4 ml saline. The sarcoma bearing mice model was prepared with an injection of 0.2 ml cell suspension through the armpit. Administration of test substance treatment started as described in section Method 1.\n2.1 The effect of peptides on the phagocytotic function of mononuclear phagocyte in mice with S180 sarcoma was analysed by injecting mice from the tail vein with 0.1 ml/10 g body weight of Indian ink (1:5 dilution with normal saline) on the second day after the last test substance administration. At one minute and five minutes after the injection, 20 μl blood was obtained from the eye canthus with heparinised tubing. The blood was mixed with 2 ml 0.1% w/v Na2CO3 and then OD680 nm obtained. The outline clear index K was calculated by the following formula: K=(lgA1−lgA2)÷(t2−t1)\nAfter the phagocytosis index study, the mice were killed by cervical vertebra dislocation. The liver, spleen, and cancer tissue were dissected, blotted dry, and weighed. The phagocytosis index a was calculated as below: α=(^3√{square root over ( )}K)×(W÷WLS)"}, "S180 sarcoma": {"tested_on": "S180 sarcoma", "test": "Growth of transplanted S180 sarcoma", "assay_type": "in vivo, BALB/c mice", "conditions": "for Tumor weight: saline 1.29 ± 0.50", "procedure": "as §1, §2\n2.2 The Tumor Growth Inhibition Index was Calculated According to the Following Formula: Tumor growth inhibition index=(mean tumor weight of control group−mean tumor weight of treatment group)÷mean tumor weight of control group 3."}, "L1210 leukemia": {"tested_on": "L1210 leukemia", "test": "Survival of mice with transplanted L1210 leukemia", "assay_type": "in vivo, DBA/2 mice", "conditions": "for Survival days: saline 16.6 ± 5.6", "procedure": "as §1\nStock L1210 cells were incubated in DMEM/F12 medium supplemented with 10% fetal bovine serum, 37° C./5% CO2 for 72 hrs, then washed 3-4 times with Hank's solution, and adjusted to […]. 0.1 ml of the cell suspension was implanted into the abdominal cavity of several healthy DBA mice for 6-8 days. The mice were then killed by cervical vertebra dislocation and their ascitic fluid collected aseptically. The cell concentration of the collected ascitic fluid was adjusted to 1×10^5 per ml with Hank's solution. 0.1 ml of the cell suspension was implanted into each of the testing animal and the survival data of the animals recorded. Treatment started in the testing animals as described in section Method 1. Mean survival day was obtained by the Kaplan-meier method in the Survival option of the SPSS software. If the animal survived longer than the experiment, the survival days was entered as the duration of the experiment. The survival index was calculated according to the following formula: Survival index=(mean survival days of treatment group−mean survival days of control group)÷mean survival days of control group 6. The Effect of Peptides on the Humoral Immunity of C57BL/6 Mice Bearing Transplanted B16 Melanoma and that on the Metastatic Potential of the Inoculated Melanoma Cells"}, "[2]": {"conditions": "dose 50 μg/kg i.p. once per day"}, "[3]": {"conditions": "dose 0.5 μg/kg i.p. once per day"}, "[4]": {"conditions": "dose 500 μg/kg i.p. once per day"}, "[5]": {"conditions": "controls: IL-2, IFN-γ 3 × 10^5 IU/kg, cyclophosphamide 20 mg/kg"}},
  "note": "Marks after values point to notes of the source that are not given here. Ends that are not written are not given here.",
  "data": [
    {"molecule": "IGMESAGIHETTY [CMS016]", "values": [
      {"measurement": "B16 metastatic foci in the lung, postmortem examination", "setting": "B16 melanoma; 5 μg/kg/day", "value": "did not show any sign of existence of B16 metastatic foci in the lung"},
      {"measurement": "B16 metastatic foci in the lung, postmortem examination", "setting": "B16 melanoma; 500 μg/kg/day", "value": "did not show any sign of existence of B16 metastatic foci in the lung"}
    ]},
    {"molecule": "KAVGHLDDLPGAL [CMS008]", "values": [
      {"measurement": "Survival index (%)", "setting": "[1]; dose 5 μg/kg i.p. once per day", "value": 67.8, "unit": "%"},
      {"measurement": "Survival days", "setting": "[1]; dose 5 μg/kg i.p. once per day", "value": "50.7 ± 20.9*^& days"},
      {"measurement": "B16 metastatic foci in the lung, postmortem examination", "setting": "B16 melanoma; 0.5 μg/kg/day", "value": "did not show any sign of existence of B16 metastatic foci in the lung"},
      {"measurement": "B16 metastatic foci in the lung, postmortem examination", "setting": "B16 melanoma; 5 μg/kg/day", "value": "did not show any sign of existence of B16 metastatic foci in the lung"},
      {"measurement": "B16 metastatic foci in the lung, postmortem examination", "setting": "B16 melanoma; 50 μg/kg/day", "value": "did not show any sign of existence of B16 metastatic foci in the lung"}
    ]},
    {"molecule": "PTTKTYFPHF [CMS001]", "values": [
      {"measurement": "Phagocytosis index", "setting": "mononuclear phagocyte; dose 5 μg/kg i.p. once per day", "value": "6.67 ± 0.43*^"},
      {"measurement": "Phagocytosis index", "setting": "mononuclear phagocyte; [2]", "value": "6.24 ± 0.33*^"}
    ]},
    {"molecule": "Phe Gln Gln Gln (FQQQ; printed: Phe Gln Gln Gln) [CMS032]", "values": [
      {"measurement": "Survival index (%)", "setting": "[1]; [3]", "value": 63.3, "unit": "%"},
      {"measurement": "Survival days", "setting": "[1]; [3]", "value": "42.8 ± 12.2*^^&$ days"}
    ]},
    {"molecule": "Phe Val Asn Asp (FVND; listed as Sus scrofa) [CMS035]", "values": [
      {"measurement": "Tumor inhibition index (%)", "setting": "S180 sarcoma; dose 5 μg/kg i.p. once per day", "value": 44.6, "unit": "%"},
      {"measurement": "Tumor weight", "setting": "S180 sarcoma; dose 5 μg/kg i.p. once per day", "value": "0.71 ± 0.37", "unit": "g"},
      {"measurement": "Survival index (%)", "setting": "L1210 leukemia; [3]", "value": 76.1, "unit": "%"},
      {"measurement": "Survival days", "setting": "L1210 leukemia; [3]", "value": "29.3 ± 15.4", "unit": "days"}
    ]},
    {"molecule": "Pro Gln Asn Phe (PQNF; printed: Pro Gln Asn Phe) [CMS034]", "values": [
      {"measurement": "Tumor inhibition index (%)", "setting": "S180 sarcoma; [3]", "value": 35.9, "unit": "%"},
      {"measurement": "Tumor weight", "setting": "S180 sarcoma; [3]", "value": "0.83 ± 0.48", "unit": "g"},
      {"measurement": "Phagocytosis index", "setting": "mononuclear phagocyte; [3]", "value": "6.35 ± 1.02"},
      {"measurement": "Phagocytosis index", "setting": "mononuclear phagocyte; dose 5 μg/kg i.p. once per day", "value": "6.20 ± 0.44*^"}
    ]},
    {"molecule": "RVAPQQHPTL [CMS011]", "values": [
      {"measurement": "Survival index (%)", "setting": "[1]; dose 5 μg/kg i.p. once per day", "value": 60.2, "unit": "%"},
      {"measurement": "Survival days", "setting": "[1]; dose 5 μg/kg i.p. once per day", "value": "36.4 ± 22.2*^& days"}
    ]},
    {"molecule": "Tyr Ser Leu (YSL; listed as Sus scrofa) [CMS024]", "values": [
      {"measurement": "postmortem examination of the mice surviving longer than 90 days", "setting": "[1]; 0.5 μg/kg/day", "value": "did not show sign of tumor establishment"},
      {"measurement": "mice that could survive longer than 90 days", "setting": "[1]; 0.5 μg/kg/day, n=6, two months after the experiment ended", "value": "more than 30%"},
      {"measurement": "Survival index (%)", "setting": "[1]; [3]", "value": 76.9, "unit": "%"},
      {"measurement": "Survival days", "setting": "[1]; [3]", "value": "46.4 ± 14.8*^^&$ days"},
      {"measurement": "Survival index (%)", "setting": "[1]; dose 5 μg/kg i.p. once per day", "value": 54.8, "unit": "%"},
      {"measurement": "Survival days", "setting": "[1]; dose 5 μg/kg i.p. once per day", "value": "40.6 ± 14.6*^&$ days"},
      {"measurement": "Survival index (%)", "setting": "[1]; [2]", "value": 38.4, "unit": "%"},
      {"measurement": "Survival days", "setting": "[1]; [2]", "value": "36.3 ± 12.7*^&$ days"}
    ]},
    {"molecule": "VAPEEHPTLLTEAPLNPK [CMS010]", "values": [
      {"measurement": "Tumor inhibition index (%)", "setting": "S180 sarcoma; [4]", "value": 48.4, "unit": "%"},
      {"measurement": "Tumor weight", "setting": "S180 sarcoma; [4]", "value": "0.67 ± 0.35", "unit": "g"}
    ]},
    {"molecule": "VGMGQKDSY", "values": [
      {"measurement": "Survival index (%)", "setting": "L1210 leukemia; [3]", "value": 26.8, "unit": "%"},
      {"measurement": "Survival days", "setting": "L1210 leukemia; [3]", "value": "21.1 ± 5.8", "unit": "days"}
    ]},
    {"molecule": "IFN-γ: recombinant mouse IFN-γ (rmIFN-γ), Beijing Biotech Inc.; positive control (protein, UniProt P01580 23-155, looked up) Interferon gamma: HGTVIESLESLNNYFNSSGIDVEEKSLFLDIWRNWQKDGDMKILQSQIISFYLRLFEVLKDNQAISNNISVIESHLITTFFSNSKAKKDAFMSIAKFEVNNPQVQRQAFNELIRVVHQLLPESSLRKRKRSRC", "values": [
      {"measurement": "Tumor inhibition index (%)", "setting": "S180 sarcoma; [5]", "value": 25.3, "unit": "%"},
      {"measurement": "Tumor weight", "setting": "S180 sarcoma; [5]", "value": "0.96 ± 0.45", "unit": "g"},
      {"measurement": "Survival index (%)", "setting": "[1]; control rmIFN-γ 3 × 10^5 IU/kg", "value": 6.1, "unit": "%"},
      {"measurement": "Survival days", "setting": "[1]; controls: rhIL-2, rmIFN-γ 3 × 10^5 IU/kg, cyclophosphamide 20 mg/kg", "value": "27.8 ± 7.5", "unit": "days"},
      {"measurement": "Phagocytosis index", "setting": "mononuclear phagocyte; [5]", "value": "5.45 ± 0.71"},
      {"measurement": "Survival days", "setting": "L1210 leukemia; [5]", "value": "15.6 ± 2.2", "unit": "days"}
    ]}
  ]
}
